We go through 56 compounds from ChEMBL document CHEMBL1201862, “PubChem BioAssay data set” (2004).

Molecules are shown by their SMILES.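 Dose response: 5 concentrations. Exposure: 48 h. Format: 96-well plates. Endpoint: linear interpolation; highest concentration if not reached. GI50 marks 50% less growth.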 Active and inactive are the calls of the source. Rule as the data show it: active = GI50 up to about 1.1 µM and inactive = higher. Where only a bound is given, the exact number is not on record here.

What all share (assay): inhibition of tumour cell growth, NCI panel, 48 h
Test [1] deals with BT-549.
In test [2] the test system is DLD-1.
Test [3] relates to DMS-114.
Test [4] deals with DMS-273.
Test [5] relates to HOP-18.
Test [6] has as its system M19-MEL.
For test [7], the system named is SNB-78.
Test [8] relates to XF498.
For test [9], the system named is RXF 631.

As to `CC(C)O/N=C/c1cc(NC(=S)OC(C)C)ccc1Cl`, the GI50 in test [1] was 55.5 µM (inactive).
As for `CN(C)CC1CCC/C(=C\c2ccc(OC(=O)/C=C/c3ccccc3)cc2)C1=O` (centres undefined), the GI50 in test [1] was 2.11 µM (inactive).
Take `O=C(O)c1nc2nc(Cl)c(Cl)nc2[nH]1`: in [1], the GI50 is > 100 µM (inactive).
For the compound `NS(=O)(=O)c1ccc(N=C2C(=O)Nc3ccccc32)cc1`, in test [1], the GI50 is > 100 µM (inactive).
Regarding `Cc1ccc(NC(S)=Nc2c(C)n(C)n(-c3ccccc3)c2=O)cc1`, the GI50 in test [1] was > 100 µM (inactive).
For `O=C1CCC(Cc2ccc(Cl)cc2Cl)C(=O)N1` (centres undefined), the GI50 in test [1] is 28.6 µM (inactive).
Turning to `Cc1sc(NC=C2C(=O)CC(C)(C)CC2=O)nc1-c1ccccc1`, in test [1], the GI50 is > 100 µM (inactive).
Still for that read-out and setting: with `CNC(=S)/C(=N\Nc1[nH]cnc1C(N)=O)C(N)=S` the figure was 29.9 µM (inactive); with `CC1=CC[C@@H]2[C@@H](CC[C@@]2(C)O)C(C)(C)[C@H]1CC[C@@H]1[C@@]2(C)CC[C@@H](O)C(C)(C)O[C@@H]2CC[C@]1(C)O`, 18.4 µM (inactive).
As to `COC(=O)c1ccc(C)cc1CC1Cc2cccc(C)c2C1=O` (centres undefined), the GI50 in [1] is 9.77 µM (inactive).
Same read-out and setting: under `C[C@@H](c1ccccc1)n1c(N)c(C#N)c2ccc([N+](=O)[O-])cc2c1=O` stands 1.69 µM (inactive); under `C=CC(C)(O)CCC1C(=C)C(O)CC2C(C)(C)CCCC12C` (centres undefined), 18 µM (inactive).
For `CCOC(=O)C(SCCO)C(C(=O)OCC)n1cc(C)c(=O)[nH]c1=O` (centres undefined), the GI50 in [1] was 23.6 µM (inactive).
Regarding `COc1ccc([C@@H]2CC(=O)NCCCCNCCCN2)cc1`, the GI50 in test [2], in test [3], in [4], in test [5], in test [6] and in test [7] was > 100 µM (inactive) throughout. The GI50 in [8] is > 100 µM (inactive).
As to `COc1ccccc1C(O)[C@@H]1C[C@@H]2[C@H]3CC[C@@](C)([C@@H]2O1)C3(C)C` (some centres undefined), the GI50 in test [1] was 18.1 µM (inactive).
Still for that read-out and setting: under `CCOc1ccc2c(c1)NC(=O)C(C1OC(c3ccccc3)=CC1=O)S2` (centres undefined) stands 32.1 µM (inactive).
On to `CC1(C)OC2C(CCP(=O)(O)O)OC(c3nc(C(N)=O)cs3)C2O1` (centres undefined), for which the GI50 in test [2], in test [3], in test [4], in test [5], in test [6] and in test [9] was > 100 µM (inactive) in each case.
On to `CCCCCCCC(CC(=O)NC(CO)C(=O)NC(CO)CC(C)C)OC(=O)CC(CCCCCCC)OC(=O)CC(CCCCCCC)OC1OC(C)C(O)C(OC2OC(C)C(O)C(O)C2OC(C)=O)C1O` (centres undefined), for which the GI50 in test [1] was 12.5 µM (inactive).
As to `CCN(CC)CCCCC1CCN(CC(=O)N2c3ccccc3NC(=O)CC2C)CC1` (centres undefined), the GI50 is 69 µM (inactive) in [3]; > 100 µM (inactive) in [4]; > 100 µM (inactive) in [5]; > 100 µM (inactive) in test [6]; 30.1 µM (inactive) in test [9]; > 100 µM (inactive) in test [7].
With `CCCCCCCCCCCCCC(=O)OCC1OC(n2cc(F)c(=O)[nH]c2=O)C(N)C(OC(=O)CCCCCCCCCCCCC)C1O` (centres undefined), the GI50 in test [3], in [4], in test [6] and in test [7] was > 100 µM (inactive) in each case.
For the compound `CCCCOC(=O)C(=O)C(CCC(=O)c1ccc(C)cc1)C(=O)C=C(C)C` (centres undefined), the GI50 in test [1] is > 100 µM (inactive).
Same read-out and setting: under `Cc1ccc(NC(c2ccccc2)P(=O)(c2ccccc2)c2ccccc2)cc1` (centres undefined) stands > 100 µM (inactive).
Regarding `CC1=NN(C(=O)CC(=O)N(C(=O)c2ccccc2Cl)c2ccc(C)cc2)C(=O)C1/N=N/c1ccc([N+](=O)[O-])cc1` (centres undefined), the GI50 in test [2] is > 45.9 µM (inactive); in test [3] it was > 42.8 µM (inactive); in test [4], 48.9 µM (inactive); in test [5], > 62.8 µM (inactive); in test [7], 57.5 µM (inactive); in [8], > 100 µM (inactive).
As for `O=C(Cc1ccccc1)NN1C(=O)C(Cl)C1c1cc(Br)ccc1O` (centres undefined), the GI50 in test [2] is 3.33 µM (inactive); in test [3] it was 2.23 µM (inactive); in test [4] it was 5.19 µM (inactive); in test [5] it was 5.01 µM (inactive); in test [6], 4.62 µM (inactive); in test [7], 8 µM (inactive). In [8], the GI50 was 7.76 µM (inactive).
For `CC(C)(C)OC(=O)n1c(-c2ccccc2F)cc(=O)c2cc3c(cc21)OCO3`, in test [1], the GI50 is 19.8 µM (inactive).
`CNC(=S)NN=C1NCCCN1`: in test [1], the GI50 was > 100 µM (inactive).
For the compound `O=C(/C=C/c1ccccc1Cl)c1cccc2ccccc12`, the GI50 in test [2] was 8.51 µM (inactive); in [3] it was 4.46 µM (inactive); in [4], 13.4 µM (inactive); in test [5], 16.1 µM (inactive); in [6] it was 11 µM (inactive); in test [7] it was 20.3 µM (inactive).
On to `Cc1cc(Cl)cc2c1NC(=O)C2(O)CC(=O)c1ccc(F)cc1` (centres undefined), for which the GI50 in test [2] is 96.8 µM (inactive); in [4], 77.3 µM (inactive); in test [5], 11.3 µM (inactive); in test [6], 5.41 µM (inactive); in test [7], 31.4 µM (inactive); in test [8], 32.1 µM (inactive).
As for `CNC(=S)NNc1ncnc2c1c(-c1ccc(Cl)cc1)cn2-c1ccc(C)cc1`, the GI50 in test [1] was 14.2 µM (inactive).
Take `CSC(=S)NN=C1CCCCC1`: the GI50 in test [1] was 45.2 µM (inactive).
On the same count and under the same terms, with `CN1C(=O)C(/C=N/NC(=O)c2cccnc2)C(N)N(C)C1=O` (centres undefined) the figure was > 100 µM (inactive); with `CN(C)/C=C/c1ccncc1`, > 100 µM (inactive).
Take `COC(=O)[C@@H](C)[C@H]1CC[C@@](C)(CCC2=C(C)CC3C=C(C)CCC3C2(C)C)OO1` (some centres undefined): the GI50 in test [2] is 0.962 µM (active); in [3], 1.81 µM (inactive); in test [4] it was 2.18 µM (inactive); in test [6], 1.77 µM (inactive); in test [9] it was 2 µM (inactive); in test [7], 2.23 µM (inactive).
Consider `O=C(OC1CN2CCC1CC2)N(c1ccccc1)c1ccccc1` (centres undefined), for which the GI50 in test [1] was > 100 µM (inactive).
Consider `c1n[nH]cc1C12C3C4C5C3C1C5C42` (centres undefined), for which the GI50 in [1] is > 100 µM (inactive).
With `O=C(O)CCCSC(=O)Nc1ccc(/N=N/c2ccccc2)cc1`, the GI50 in [3], in test [4] and in test [7] was > 100 µM (inactive) throughout.
`CCOC(=O)C(=Cc1ccccc1Cl)C(=O)OCC`: in [1], the GI50 is 1.62 µM (inactive).
In the case of `CN1CCc2c3n(c4cc(Br)ccc24)[C@H](O)CCCC31` (some centres undefined), in test [1], the GI50 was > 10 µM (inactive).
On the same count and under the same terms, under `CC(C)(C)c1cc(-c2ccc(-c3cc(C(C)(C)C)c(O)c(C(C)(C)C)c3)cc2)cc(C(C)(C)C)c1O` stands > 100 µM (inactive).
Still for that read-out and setting: with `Cc1nc2c(Br)cc(Br)cc2c(=O)n1-c1ccccc1NC1OC(CO)C(O)C(O)C1O` (centres undefined) the figure was > 100 µM (inactive).
`N#CC(NNC(=O)Cc1ccccc1)c1ccccc1O` (centres undefined): the GI50 in test [1] was 21 µM (inactive); in test [2], 47 µM (inactive); in test [4], 6.59 µM (inactive); in test [5], 13.2 µM (inactive); in test [6], 7.96 µM (inactive); in test [7], 80.5 µM (inactive).
Take `Cc1cc(-c2ccccc2)cc2[n+]1CC=C2.[O-][Cl+3]([O-])([O-])[O-]`: the GI50 in [2] is 58.5 µM (inactive); in test [3], 77.4 µM (inactive); in test [4], 46.7 µM (inactive); in test [5], < 0.01 µM (active); in test [6] it was > 100 µM (inactive); in test [7], > 100 µM (inactive).
In the case of `Oc1ccccc1-c1cnnc(-c2ccccc2O)c1`, the GI50 in test [2] is 30.6 µM (inactive); in test [3] it was 15 µM (inactive); in test [5], 22.1 µM (inactive); in [6], 27.4 µM (inactive); in test [7] it was 33.3 µM (inactive); in test [8], 16.2 µM (inactive).
Take `Cc1ccc(NC(=S)NNC(=O)c2cc(-c3ccccc3)nc3ccccc23)cc1`: in test [1], the GI50 was 15.7 µM (inactive).
For the compound `CCOP(=O)(OCC)/C(C#N)=C\c1ccsc1`, the GI50 in test [2], in test [3], in test [4], in [5], in test [6] and in test [7] was > 100 µM (inactive) each time. Also, the GI50 in test [8] was > 100 µM (inactive).
Turning to `CCOC(=O)NC(Nc1ccc(S(=O)(=O)Nc2ncccn2)cc1)(C(=O)OCC)C(F)(F)F` (centres undefined), the GI50 in test [1] was > 100 µM (inactive).
With `CC(=O)c1sc(Nc2ccc(Cl)c(Cl)c2)nc1C`, in [1], the GI50 is > 100 µM (inactive).
`CN(C)CCNC1=CC(=O)c2c(O)ccc(O)c2C1=O`: the GI50 in test [1] was 14.6 µM (inactive).
Same read-out and setting: with `CCOC(=O)C1=C(C)NC(=O)NC1c1ccc(N(CCCl)CCCl)cc1Cl` (centres undefined) the figure was 15.5 µM (inactive).
Same read-out and setting: with `NCS(=O)(=O)O` the figure was > 100 µM (inactive).
Take `O=S(=O)(O)c1ccc2c(/N=N/c3c(O)ccc4ccccc34)cccc2c1`: the GI50 in test [1] was > 100 µM (inactive).
With `CC(=O)O[C@H]1C(=O)[C@@]2(C)C(C(OC(=O)c3ccccc3)C3[C@@H](O)C(OC(=O)[C@@H](O)[C@H](NC(=O)c4ccccc4)c4ccc(C(F)(F)F)cc4)C(C)=C1C3(C)C)[C@]1(OC(C)=O)CO[C@@H]1C[C@@H]2O` (some centres undefined), the GI50 in test [2] is > 25 µM (inactive); in [3], 11.3 µM (inactive); in test [4] it was 11.7 µM (inactive); in test [6] it was > 25 µM (inactive); in test [7], > 25 µM (inactive).
On to `COc1ccc(C(=O)C#Cc2cnc(O)nc2O)cc1`, for which the GI50 in test [2] is 6.32 µM (inactive); in test [3] it was 18.7 µM (inactive); in test [4] it was 14.9 µM (inactive); in test [5], 24.5 µM (inactive); in test [6] it was 8.93 µM (inactive); in [9], 8.89 µM (inactive). In addition, the GI50 in test [7] is 16.1 µM (inactive).
For the compound `O=C(c1ccc([N+](=O)[O-])cc1)C(Br)C(Br)c1ccnc2ccccc12` (centres undefined), in test [1], the GI50 is 7.59 µM (inactive).
As for `N#Cc1c(N)nc2[nH]nc(N)c2c1-c1ccccc1`, the GI50 in test [1] was 7.43 µM (inactive).
Same read-out and setting: under `COc1cc(-c2cc(=O)c3c(OC)c(OC)c(OC)c(OC)c3o2)cc(OC)c1OC` [HEPATAMETHOXYFLAVONE] stands 48.6 µM (inactive).
